Where a name gives a salt, the structure may show the parent alone.
Tests used:
human PR3 = biological target: T1, human PR3 (Homo sapiens, UniProt P24158); assay: Inhibition of NE680 cleavage by human PR3; type: biochemical; conditions: NE680 0.5 μM as substrate; 30 min preincubation of enzyme with inhibitor, room temperature; read-out: IC50 on NE680 activation by human PR3
T1 construct: human neutrophil PR3 from Athens Research and Technology (Athens, GA); purchased Athens Research and Technology (Athens, GA); host or cells: human neutrophils
T1 sequence (P24158 28-256): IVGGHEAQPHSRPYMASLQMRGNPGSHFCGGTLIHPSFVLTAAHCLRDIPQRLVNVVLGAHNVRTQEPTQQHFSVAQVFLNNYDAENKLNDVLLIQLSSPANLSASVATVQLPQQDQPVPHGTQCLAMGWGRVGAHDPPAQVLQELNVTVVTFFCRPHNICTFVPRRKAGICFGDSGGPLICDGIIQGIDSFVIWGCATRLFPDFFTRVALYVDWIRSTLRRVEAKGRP
Method: Activation and protease selectivity of NE680 were determined with NE and closely related enzymes including PR3, Cat G, Cat B, and MMP-9. The assays were performed with 0.05 μM of enzyme and 0.5 μM NE680 in the optimized buffer and pH for each enzyme. Human NE was purchased from Innovative Research (Novi, MI), recombinant mouse NE, mouse Cat B, and active mouse Cat C from R and D Systems (Minneapolis, MN), human neutrophil PR3 from Athens Research and Technology (Athens, GA), and human neutrophil Cat G and recombinant human MMP-9 from BIOMOL International (Plymouth Meeting, PA). […] All the reactions were monitored at various time points at excitation/emission wavelengths of 663/690 nm with a cutoff at 665 nm using a fluorescence plate reader (Molecular Devices, San Leandro, CA). The released fluorescence is shown after subtracting background fluorescence of the agent without enzyme.
The IC50 against human NE and human PR3 were determined as described above using NE680 (0.5 μM). […]

NE [1] = biological target: T2, NE (Mus musculus, UniProt Q3UP87); assay: NE680 activation ex vivo in lung sections; conditions: 1 μM NE680, 37°C, 5 h
T2 construct: from tissue; host or cells: lung of LPS/fMLP-challenged CD-1 mice (frozen sections or in vivo)
T2 sequence (Q3UP87 27-265): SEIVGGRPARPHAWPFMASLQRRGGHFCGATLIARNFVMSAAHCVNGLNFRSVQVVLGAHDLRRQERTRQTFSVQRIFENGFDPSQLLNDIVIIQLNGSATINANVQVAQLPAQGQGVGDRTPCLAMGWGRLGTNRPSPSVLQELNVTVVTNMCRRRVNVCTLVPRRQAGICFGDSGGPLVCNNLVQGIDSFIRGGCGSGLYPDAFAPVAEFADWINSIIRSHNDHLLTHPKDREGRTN
Text: To validate the specificity of NE680 activation by NE present in lungs, mice with lung inflammation and control healthy mice (which had not received NE680) were euthanized by CO2 inhalation and lungs were removed and snap frozen in OCT. […] Fluorescence, as a measure of agent activation, was captured under fluorescence microscopy using appropriate filters (Zeiss Axioskop 2 MOT Plus). DAPI was used as a nuclear counterstain.

NE [2] = biological target: T2, NE; assay: In vivo FMT imaging of NE680 activation in LPS/fMLP acute lung injury
Text: Acute lung inflammation was induced in mice according to published protocols with slight modifications. Male CD-1 mice were purchased from Charles River Laboratories (Wilmington, MA) and used when they reached 8–10 weeks of age. Mice were housed in environmentally controlled specific-pathogen-free conditions with water and low-fluorescence mouse chow (Harlan Teklad, Madison, WI). All animal experimental procedures were approved by PerkinElmer's Institutional Animal Care and Use Committee and were in accordance with veterinarian requirements. On day 1, mice were challenged intranasally (i.n.) with 100 μg of LPS (E. coli 111 : B4, Sigma, St. Louis, MO) solubilized in 40 μL PBS or PBS only. Eighteen hours later, mice received an intranasal instillation of the chemotactic peptide N-formyl-met-leu-phe (fMLP, Sigma, St. Louis, MO) at 200 nM in 40 μL PBS together with 4 nmoles of NE680.
For in vivo imaging, mice were first depilated using Nair and placed in a fluorescence molecular tomography (FMT) 2500 system (PerkinElmer, Boston, MA) imaging chamber to which is delivered a controlled amount of isoflurane/oxygen mixture keeping the mice anesthetized. Three-dimensional regions of interest (ROIs) were drawn around the chest area applying a universal threshold, equal to 40% of the mean concentration value of fluorescence in the LPS/fMLP mice (in nM). The total amount (in picomole) of fluorochrome was automatically calculated relative to internal standards generated with known concentrations of the appropriate fluorochrome. For each study, the mean fluorescence of the LPS/fMLP group was equaled to 100%, and then each mouse in that study was normalized accordingly. Shown are the grouped results of 3 studies, as the percentage of LPS/fMLP Lung Fluorescence (means ± S.E.M.).

neutrophil influx = assay: Lung histology (H and E) after in vivo imaging, neutrophil influx; parameters: species or system mouse; conditions: single treatment 5 mg/kg i.n. 18 h after LPS; H and E sections
mouse NE = assay: In vitro activation and protease selectivity of NE680 (mouse NE versus related enzymes); type: biochemical; conditions: at 5 h, 0.5 μM NE680, 0.05 μM enzyme, room temperature, optimized buffer for each enzyme
Method: Activation and protease selectivity of NE680 were determined with NE and closely related enzymes including PR3, Cat G, Cat B, and MMP-9. The assays were performed with 0.05 μM of enzyme and 0.5 μM NE680 in the optimized buffer and pH for each enzyme. Human NE was purchased from Innovative Research (Novi, MI), recombinant mouse NE, mouse Cat B, and active mouse Cat C from R and D Systems (Minneapolis, MN), human neutrophil PR3 from Athens Research and Technology (Athens, GA), and human neutrophil Cat G and recombinant human MMP-9 from BIOMOL International (Plymouth Meeting, PA). The reaction buffers were as follows: for human NE, 100 mM Tris (pH 7.5); for mouse NE, 50 mM Tris (pH 7.5), 1 M NaCl, 0.05% Brij-35; for Cat B, 25 mM MES (pH 5.0), 0.5 mM DTT (preactivation in 25 mM MES pH 5.0, 5 mM DTT for 15 min at room temperature); for MMP-9, 50 mM Tris (pH 7.5), 10 mM CaCl2, 150 mM NaCl, 0.05% Brij 35; for Cat G, 100 mM Tris (pH 7.5), 1.6 M NaCl; for human PR3, 100 mM Tris (pH 7.5), 500 mM NaCl. Mouse NE was activated by active mouse Cat C in 50 mM MES, 50 mM NaCl, pH5.5 at 37°C for 2 h. Reactions were carried out at room temperature in 250 μL in 96 well plates with black sides and bottom. All the reactions were monitored at various time points at excitation/emission wavelengths of 663/690 nm with a cutoff at 665 nm using a fluorescence plate reader (Molecular Devices, San Leandro, CA). The released fluorescence is shown after subtracting background fluorescence of the agent without enzyme.

Mouse plasma stability = type: in vitro ADME; conditions: normal mouse plasma diluted 1:4 in PBS pH 7.40 with 1 mM EDTA, 37°C, 24 h; HPLC; data not shown
Method: The agent was incubated in normal mouse plasma (Innovative Research, Novi, MI) diluted 1 : 4 in PBS, pH 7.40 with 1 mM EDTA, at 37°C for 24 h. The stability of the agent was analyzed by HPLC.
HPLC analyses were performed on a Waters model 2695 (Waters Corporation, Milford, MA). The PDA, Waters model 2998, was set to scan from 225 nm to 800 nm. The wavelength corresponding to the absorbance maximum of the fluorophore, 675 nm, was extracted from the PDA trace. The fluorescence spectrophotometer was set to an excitation wavelength of 675 nm and emission was monitored at 693 nm. Samples were analyzed on a C4, 300 Å, 5 μm, 150 × 4.6 mm HPLC column (Phenomenex, Torrance, CA). The aqueous mobile phase contained 25 mM ammonium formate, pH 8.5. Samples were eluted with acetonitrile at a flow rate of 1 mL/min. A gradient of 15% to 85% organic provided sufficient resolution. Standards were prepared with NE680 (0–2.5 μM) in mouse plasma. Standard curves had correlation coefficients >0.98.

[3] = Pharmacokinetics in CD-1 mice after i.v. injection; type: in vivo, mouse; conditions: female CD-1 mice, 2 nmol i.v. bolus in PBS, n = 3 mice per time point, HPLC of plasma; data not shown
Method: Twenty-four female retired breeder CD-1 mice (age 12–16 weeks, Charles River Laboratories, Wilmington, MA) received a bolus intravenous (i.v.) injection of NE680 (2 nmol in PBS). Terminal blood samples (n = 3 mice per time point) were collected by cardiac puncture from each mouse (following carbon dioxide asphyxiation). Plasma was collected by centrifugation (15,000 rpm for 10 min at 4°C) in EDTA-containing tubes. Aliquots (50 μL) of each plasma sample were placed in Eppendorf tubes. Cold methanol (150 μL) was added and the tubes were vortexed followed by centrifugation at 12,000 rpm and 4°C for 10 minutes. Approximately 110 μL of the supernatants were transferred to HPLC vials for analysis. Studies were conducted in accordance with and approved by PerkinElmer's IACUC Institutional Animal Care and Use Committee guidelines.
HPLC analyses were performed on a Waters model 2695 (Waters Corporation, Milford, MA). The PDA, Waters model 2998, was set to scan from 225 nm to 800 nm. The wavelength corresponding to the absorbance maximum of the fluorophore, 675 nm, was extracted from the PDA trace. The fluorescence spectrophotometer was set to an excitation wavelength of 675 nm and emission was monitored at 693 nm. Samples were analyzed on a C4, 300 Å, 5 μm, 150 × 4.6 mm HPLC column (Phenomenex, Torrance, CA). The aqueous mobile phase contained 25 mM ammonium formate, pH 8.5. […]

[4] = Fluorescence biodistribution in excised organs; type: in vivo, mouse; conditions: organs excised from 3 LPS/fMLP mice immediately after imaging, reflectance mode, mean fluorescence counts/energy
Method: Immediately following imaging, a cohort of mice were sacrificed (n = 3 per group), organs excised, and imaged in reflectance mode using the FMT 2500. The mean fluorescence intensity was measured after drawing an ROI around each organ. Data are expressed as mean fluorescence (in counts/energy) reported as means ± S.E.M.

[5] = 10 μm frozen sections, fluorescence microscopy

With `CC(C)(C)C(=O)Oc1ccc(S(=O)(=O)Nc2ccccc2C(=O)NCC(=O)O)cc1` [sivelestat, N-{2-[({4-[(2,2-dimethylpropanoyl)oxy]phenyl}sulfonyl)amino]benzoyl} glycine sodium salt, reference compound] as the molecule, how does the IC50 (human PR3) read?
Its IC50 is 700 nM.

And the “suppression of NE680 activation in ALI lung sections” value (NE [1]; sivelestat 40 nM)?
Its value is “significantly inhibited”.

What about the “suppression of NE680 activation in ALI lung sections” value (NE [1]; sivelestat 0.4 and 4 μM) of the same molecule?
Its value is “almost completely blocking”.

And the “median concentration of lung fluorescence” value (shortened to “median concentration”) (NE [2]; ALI mice treated with sivelestat 5 mg/kg i.n. 15 min before fMLP and NE680, n = 12)?
Its value is 73 nM.

And the “lung fluorescence as percentage of LPS/fMLP group” value (NE [2]; ALI mice treated with sivelestat 5 mg/kg i.n. 15 min before fMLP and NE680, mean ± S.E.M., n = 12, P = 0.0144)?
Its value is 53.57 ± 10.34%.

What about the “effect on neutrophil influx into the lung” value (neutrophil influx) of the same molecule?
Its value is “not inhibited”.

Which “cleavage by mouse NE relative to Cat G” value (mouse NE; human Cat G) does the source give for PMAVVQSVP [NE680] here?
The value was over 10 fold.

And the “cleavage by mouse NE relative to MMP-9” value (mouse NE; human MMP-9)?
Its value is over 30 fold.

And the “cleavage by mouse NE relative to Cat B” value (mouse NE; mouse Cat B)?
Its value is “over 250 fold”.

What about the “stability in mouse plasma” value (Mouse plasma stability) of the same molecule?
Its value is “optically stable and remains quenched”.

What about the “half-life in plasma (t 1/2)” value [3] of the same molecule?
The value was 3 h.

What about the “fluorescence (agent activation) in lung sections from control mice” value (NE [1]; [5]) of the same molecule?
The value was “little or no apparent fluorescence”.

And the “fluorescence (agent activation) in lung sections from mice with ALI” value (NE [1]; [5])?
Its value is “strong fluorescence”.

What about the “average total fluorescence per lung” value (NE [2]; LPS/fMLP mice) of the same molecule?
The value was ~ 100 pmol fluorescence/lung.

And the “magnitude of signal in positive control animals across studies” value (NE [2]; LPS/fMLP mice, range between studies)?
Its value is 30–190 pmols fluorescence/lung.

And the “average total fluorescence per lung” value (NE [2]; control mice)?
Its value is under 5 pmol fluorescence/lung.

What about the “median concentration” value (NE [2]; healthy controls, n = 12, 4 nmoles NE680 i.n., FMT 5 h later) of the same molecule?
The value was 0 nM.

And the “median concentration” value (NE [2]; mice with LPS/fMLP ALI, n = 16, 4 nmoles NE680 i.n., FMT 5 h later)?
The value was 164 nM.

What about the “NE680 signal in lungs relative to all other tissues” value [4] of the same molecule?
Its value is 30- to 170 fold.

From article PMC3175392, “Noninvasive In Vivo Quantification of Neutrophil Elastase Activity in Acute Experimental Mouse Lung Injury” (International Journal of Molecular Imaging, 2011)
